In ChEMBL document CHEMBL3885861, “Open TG-GATES”:

Species: Rattus norvegicus
Assay: Open TG-GATES - Regimen: Single
Type: toxicity, organism-based, Sprague-Dawley
Parameters: regimen Single, gender Male, age 6 weeks
Conditions: in vivo, po, route gavage; for Bas / Eos / Fbg / Lym / Mono / RBC / Ret / WBC: tissue Blood; for KIDNEY_L / KIDNEY_R / KIDNEY_TOTAL: tissue Kidney; for ALP / CRE / DBIL / IP / K / LDH / Na / PL / RALB / TBIL / TG / TP / gamma-GTP / GLC: tissue Plasma
[1] = 0 mg/kg, 3 h, dose level Control
[2] = 0 mg/kg, 6 h, dose level Control
[3] = 0 mg/kg, 9 h, dose level Control
[4] = 0 mg/kg, 24 h, dose level Control

C=C[C@H]1C[N@@]2CC[C@H]1C[C@@H]2[C@@H](O)c1ccnc2ccc(OC)cc12 [QUINIDINE]
TERMINAL_BW [1]: 212.2 g
Bas [1]: 0%
Eos [1]: 0.8%
Fbg [1]: 313.6 mg/dL
Lym [1]: 78.2%
Mono [1]: 1.8%
RBC [1]: 615 x10_4/ul
Ret [1]: 7.3%
WBC [1]: 86.7 x10_2/uL
KIDNEY_L [1]: 0.9 g
KIDNEY_R [1]: 1 g
KIDNEY_TOTAL [1]: 1.9 g
ALP [1]: 1497.8 IU/L
CRE [1]: 0.2 mg/dL
DBIL [1]: 0 mg/dL
IP [1]: 8.8 mg/dL
K [1]: 3.9 meq/L
LDH [1]: 153 IU/L
Na [1]: 143.8 meq/L
PL [1]: 136 mg/dL
RALB [1]: 3 g/dL
TBIL [1]: 0.018 mg/dL
TG [1]: 60.6 mg/dL
TP [1]: 5.4 g/dL
gamma-GTP [1]: 1.8 IU/L
TERMINAL_BW [2]: 213.3 g
Bas [2]: 0%
Eos [2]: 0.6%
Fbg [2]: 318.2 mg/dL
Lym [2]: 81.4%
Mono [2]: 2.2%
RBC [2]: 641 x10_4/ul
Ret [2]: 7%
WBC [2]: 100 x10_2/uL
KIDNEY_L [2]: 1 g
KIDNEY_R [2]: 1 g
KIDNEY_TOTAL [2]: 1.9 g
ALP [2]: 1503.8 IU/L
CRE [2]: 0.2 mg/dL
DBIL [2]: 0 mg/dL
IP [2]: 9.3 mg/dL
K [2]: 4.2 meq/L
LDH [2]: 187 IU/L
Na [2]: 143 meq/L
PL [2]: 134.8 mg/dL
RALB [2]: 3.1 g/dL
TBIL [2]: 0.018 mg/dL
TG [2]: 73.6 mg/dL
TP [2]: 5.4 g/dL
gamma-GTP [2]: 1.2 IU/L
TERMINAL_BW [3]: 212.8 g
Bas [3]: 0%
Eos [3]: 0.4%
Fbg [3]: 288.2 mg/dL
Lym [3]: 79.4%
Mono [3]: 2%
RBC [3]: 614.8 x10_4/ul
Ret [3]: 6.9%
WBC [3]: 84.8 x10_2/uL
KIDNEY_L [3]: 1 g
KIDNEY_R [3]: 1 g
KIDNEY_TOTAL [3]: 1.9 g
ALP [3]: 1297.8 IU/L
CRE [3]: 0.2 mg/dL
DBIL [3]: 0 mg/dL
GLC [3]: 174.2 mg/dL
IP [3]: 9.6 mg/dL
K [3]: 4.4 meq/L
LDH [3]: 136.6 IU/L
Na [3]: 143.8 meq/L
PL [3]: 131.6 mg/dL
RALB [3]: 3 g/dL
TBIL [3]: 0.022 mg/dL
TG [3]: 66 mg/dL
TP [3]: 5.5 g/dL
gamma-GTP [3]: 1.6 IU/L
TERMINAL_BW [4]: 227.4 g
Bas [4]: 0%
Eos [4]: 0.8%
Fbg [4]: 298.2 mg/dL
Lym [4]: 78.6%
Mono [4]: 1.8%
RBC [4]: 618.4 x10_4/ul
Ret [4]: 6.9%
WBC [4]: 90.9 x10_2/uL
KIDNEY_L [4]: 1 g
KIDNEY_R [4]: 1 g
KIDNEY_TOTAL [4]: 2 g
ALP [4]: 1610.6 IU/L
CRE [4]: 0.1 mg/dL
DBIL [4]: 0 mg/dL
IP [4]: 7.9 mg/dL
K [4]: 4.3 meq/L
LDH [4]: 202.2 IU/L
Na [4]: 141.6 meq/L
PL [4]: 149.8 mg/dL
RALB [4]: 3 g/dL
TBIL [4]: 0.008 mg/dL
TP [4]: 5.7 g/dL
gamma-GTP [4]: 1.6 IU/L
TERMINAL_BW (20 mg/kg, 3 h, dose level Low): 218.9 g
Bas (20 mg/kg, 3 h, dose level Low): 0%
Eos (20 mg/kg, 3 h, dose level Low): 0.2%
Fbg (20 mg/kg, 3 h, dose level Low): 293.2 mg/dL
Lym (20 mg/kg, 3 h, dose level Low): 81%
Mono (20 mg/kg, 3 h, dose level Low): 2%
RBC (20 mg/kg, 3 h, dose level Low): 600.6 x10_4/ul
Ret (20 mg/kg, 3 h, dose level Low): 7.5%
WBC (20 mg/kg, 3 h, dose level Low): 73.2 x10_2/uL
KIDNEY_L (20 mg/kg, 3 h, dose level Low): 1 g
KIDNEY_R (20 mg/kg, 3 h, dose level Low): 1 g
KIDNEY_TOTAL (20 mg/kg, 3 h, dose level Low): 2 g
ALP (20 mg/kg, 3 h, dose level Low): 1446.4 IU/L
CRE (20 mg/kg, 3 h, dose level Low): 0.2 mg/dL
DBIL (20 mg/kg, 3 h, dose level Low): 0 mg/dL
GLC (20 mg/kg, 3 h, dose level Low): 178.4 mg/dL
IP (20 mg/kg, 3 h, dose level Low): 8.7 mg/dL
K (20 mg/kg, 3 h, dose level Low): 3.7 meq/L
Na (20 mg/kg, 3 h, dose level Low): 142 meq/L
PL (20 mg/kg, 3 h, dose level Low): 145 mg/dL
RALB (20 mg/kg, 3 h, dose level Low): 3 g/dL
TBIL (20 mg/kg, 3 h, dose level Low): 0.022 mg/dL
TG (20 mg/kg, 3 h, dose level Low): 68.2 mg/dL
TP (20 mg/kg, 3 h, dose level Low): 5.4 g/dL
gamma-GTP (20 mg/kg, 3 h, dose level Low): 1.8 IU/L
TERMINAL_BW (20 mg/kg, 6 h, dose level Low): 214.6 g
Bas (20 mg/kg, 6 h, dose level Low): 0%
Eos (20 mg/kg, 6 h, dose level Low): 0.8%
Fbg (20 mg/kg, 6 h, dose level Low): 294.2 mg/dL
Lym (20 mg/kg, 6 h, dose level Low): 78%
Mono (20 mg/kg, 6 h, dose level Low): 2.6%
RBC (20 mg/kg, 6 h, dose level Low): 617.4 x10_4/ul
Ret (20 mg/kg, 6 h, dose level Low): 7.3%
WBC (20 mg/kg, 6 h, dose level Low): 80 x10_2/uL
KIDNEY_L (20 mg/kg, 6 h, dose level Low): 0.9 g
KIDNEY_R (20 mg/kg, 6 h, dose level Low): 1 g
KIDNEY_TOTAL (20 mg/kg, 6 h, dose level Low): 1.9 g
ALP (20 mg/kg, 6 h, dose level Low): 1616.2 IU/L
CRE (20 mg/kg, 6 h, dose level Low): 0.2 mg/dL
DBIL (20 mg/kg, 6 h, dose level Low): 0.004 mg/dL
IP (20 mg/kg, 6 h, dose level Low): 9.4 mg/dL
K (20 mg/kg, 6 h, dose level Low): 4 meq/L
Na (20 mg/kg, 6 h, dose level Low): 142.8 meq/L
PL (20 mg/kg, 6 h, dose level Low): 140.6 mg/dL
RALB (20 mg/kg, 6 h, dose level Low): 3 g/dL
TBIL (20 mg/kg, 6 h, dose level Low): 0.034 mg/dL
TG (20 mg/kg, 6 h, dose level Low): 55.6 mg/dL
TP (20 mg/kg, 6 h, dose level Low): 5.4 g/dL
gamma-GTP (20 mg/kg, 6 h, dose level Low): 1.2 IU/L
TERMINAL_BW (20 mg/kg, 9 h, dose level Low): 213.3 g
Bas (20 mg/kg, 9 h, dose level Low): 0%
Eos (20 mg/kg, 9 h, dose level Low): 0.8%
Fbg (20 mg/kg, 9 h, dose level Low): 302.6 mg/dL
Lym (20 mg/kg, 9 h, dose level Low): 77.2%
Mono (20 mg/kg, 9 h, dose level Low): 2.2%
RBC (20 mg/kg, 9 h, dose level Low): 642 x10_4/ul
Ret (20 mg/kg, 9 h, dose level Low): 6.9%
WBC (20 mg/kg, 9 h, dose level Low): 88 x10_2/uL
KIDNEY_L (20 mg/kg, 9 h, dose level Low): 1 g
KIDNEY_R (20 mg/kg, 9 h, dose level Low): 1 g
KIDNEY_TOTAL (20 mg/kg, 9 h, dose level Low): 2 g
ALP (20 mg/kg, 9 h, dose level Low): 1487 IU/L
CRE (20 mg/kg, 9 h, dose level Low): 0.2 mg/dL
DBIL (20 mg/kg, 9 h, dose level Low): 0 mg/dL
IP (20 mg/kg, 9 h, dose level Low): 9.3 mg/dL
K (20 mg/kg, 9 h, dose level Low): 4.4 meq/L
LDH (20 mg/kg, 9 h, dose level Low): 133.8 IU/L
Na (20 mg/kg, 9 h, dose level Low): 143.8 meq/L
PL (20 mg/kg, 9 h, dose level Low): 136.8 mg/dL
RALB (20 mg/kg, 9 h, dose level Low): 3 g/dL
TBIL (20 mg/kg, 9 h, dose level Low): 0.02 mg/dL
TG (20 mg/kg, 9 h, dose level Low): 83.4 mg/dL
TP (20 mg/kg, 9 h, dose level Low): 5.5 g/dL
gamma-GTP (20 mg/kg, 9 h, dose level Low): 1.6 IU/L
TERMINAL_BW (20 mg/kg, 24 h, dose level Low): 228.7 g
Bas (20 mg/kg, 24 h, dose level Low): 0%
Eos (20 mg/kg, 24 h, dose level Low): 1%
Fbg (20 mg/kg, 24 h, dose level Low): 321.4 mg/dL
Lym (20 mg/kg, 24 h, dose level Low): 82.4%
Mono (20 mg/kg, 24 h, dose level Low): 2.4%
RBC (20 mg/kg, 24 h, dose level Low): 632.8 x10_4/ul
Ret (20 mg/kg, 24 h, dose level Low): 6.7%
WBC (20 mg/kg, 24 h, dose level Low): 97.6 x10_2/uL
KIDNEY_L (20 mg/kg, 24 h, dose level Low): 1 g
KIDNEY_R (20 mg/kg, 24 h, dose level Low): 1 g
KIDNEY_TOTAL (20 mg/kg, 24 h, dose level Low): 1.9 g
ALP (20 mg/kg, 24 h, dose level Low): 1563 IU/L
CRE (20 mg/kg, 24 h, dose level Low): 0.1 mg/dL
DBIL (20 mg/kg, 24 h, dose level Low): 0.002 mg/dL
IP (20 mg/kg, 24 h, dose level Low): 7.7 mg/dL
K (20 mg/kg, 24 h, dose level Low): 4 meq/L
Na (20 mg/kg, 24 h, dose level Low): 140.4 meq/L
RALB (20 mg/kg, 24 h, dose level Low): 3.1 g/dL
TBIL (20 mg/kg, 24 h, dose level Low): 0 mg/dL
TG (20 mg/kg, 24 h, dose level Low): 147.8 mg/dL
TP (20 mg/kg, 24 h, dose level Low): 5.8 g/dL
gamma-GTP (20 mg/kg, 24 h, dose level Low): 1.8 IU/L
TERMINAL_BW (60 mg/kg, 3 h, dose level Middle): 222.4 g
